System: human melanoma A375 cells
Test: Cell permeabilization to DAPI, flow cytometry analysis
Format: cell-based
Description: The activity of plasmon-driven MJHs to open cell membranes by VDA upon NIR light-activation was evaluated in human melanoma A375 cells. When the cell membranes were open by VDA, DAPI enters immediately into the cells and stain the nucleus, and flow cytometry analysis was used to quantify the percentage of DAPI positive cells at variable concentrations of MJH. The flow cytometry analysis is conducted immediately after the cells were treated with 730 nm LED light at 80 mW/cm^2 for 10 min. Typically, it took ˜30 s to start cell counting and observe that DAPI already had entered into the cell membrane-compromised cells but not in the controls without VDA action. This is indicative of a rapid necrotic cell death and cell membrane permeabilization to DAPI by VDA action. The effective concentration needed to permeabilize cells by 50% (VDA IC50) was estimated for each molecule.
The flow cytometry data was analyzed using FlowJo software version 10.5.3. Then, a wide polygonal gate was drawn as shown in FIG. 33A since we were interested in detecting any cell death after treatment, we were not only interested in measuring healthy cell populations. Sometimes, we observed that the death cell population upon treatment shifted outside the gate if a narrow gate was used. Then, the singlets were selected and the DAPI fluorescence intensity was plotted versus the SSC-A and the gate for DAPI positive cells was drawn as shown in FIG. 33C and the analysis was applied to all samples in the group. In FIG. 33D, a DAPI positive population is observed in the same analysis group. This analysis was applied to calculate the percentage of DAPI positive cells.
Cell Permeabilization and flow cytometry analysis. A375 cells were cultured as described before. One day before the treatment, cells were inoculated at 5 million cells per dish (10 cm polystyrene tissue culture dish). The cells were harvested using 0.05% trypsin-EDTA (Gibco, 25-300-054), then the cells were counted and were adjusted to a cell density of 2×10^5 cells/mL in DMEM media with L-glutamine, 4.5 g/L glucose, and sodium pyruvate (Corning Inc. 10013CV) and supplemented with 10% FBS (Corning, 35010CV), 2×MEM vitamin solution (Gibco, 11120052), 1×MEM non-essential amino acid solution (Gibco, 11140050) and penicillin/streptomycin. 1 mL of this cell suspension containing 2×10^5 cells was used in each treatment. In a 1.5 mL Eppendorf tube, […] containing 2 mM Cy7.5-amine (or other cyanine molecule or other concentration) in DMSO (Fisher, 99.7%) was placed in the bottom of the tube, then 1 mL of the cell suspension was added into the tube to get final concentration of 2 μM of Cy7.5-amine containing 0.1% DMSO and 2×10^5 cells. The mixture was then incubated at 37° C. and 5% CO2 for 30 min. Then, 1 mM DAPI was added into the cell suspension. Then, the cells suspension was transferred to a […] tissue culture dish and immediately the cells were treated under the light beam of NIR light of 730 nm at 80 mW/cm^2 (or adjusted powers down to 20 mW/cm^2) for 10 min (or adjusted illumination times down to 30 s) using LED light source (PRIZMATIX, UHP-F-730, Israel) which covered the entire dish. While the cells were treated, the dish was placed on top of an aluminum block painted black, so that the excess NR light and that was not reflected back into the cell suspension while the aluminum block actED as a heat-sink, maintaining a constant temperature in the dish during the irradiation. The instrument for flow cytometry analysis (SONY, MA900 Multi-Application Cell Sorter) was already set up and calibrated by the time the light treatment was finished. Therefore, as soon as the 10-min light treatment was completed, the cell suspension was rapidly transferred from the 35 mm dish to a flow cytometry tube and the cells were analyzed for DAPI permeabilization and Cy7.5-amine binding. It took ˜30 s to load the sample and to start the analysis. […]

SMILES: CN1/C(=C\C=C2C=C(/C=C/C3=[N+](CCCCCC(=O)NCCCCCCN)c4ccc5ccccc5c4C3(C)C)CCC\2)C(C)(C)c2c1ccc1ccccc21 [Cy7.5-amine]
- permeabilization to DAPI staining, percentage of cells (1 μM, 730 nm LED at 80 mW/cm^2 for 10 min): 99.6%
- binding to cells upon addition of acetic acid (2 μM, acetic acid 0 mM-10 mM): not able to bind efficiently to lipid membranes

— US20250170098A1, “MOLECULAR JACKHAMMER FOR MECHANICAL DESTRUCTION OF CELLULAR STRUCTURE” (William Marsh Rice University, priority 2022, published 2025)
